# Source: PMC9268414, “Screening an In-House Isoquinoline Alkaloids Library for New Blockers of Voltage-Gated Na^+ Channels Using Voltage Sensor Fluorescent Probes: Hits and Biases” (Molecules, 2022)
# Read-outs that look alike come from different tables or passages of the source.
# Assays:
# hNaV1.3 channel = biological target: T1, hNaV1.3 channel (Homo sapiens, UniProt Q9NY46); test: Automated patch-clamp, Na+ currents in HEK293-hNaV1.3 cells; assay type: cell-based
# T1 construct: expressed in transfected cells
# Method: (§1) GH3b6 cells are a subclone of the GH3 pituitary cell line and were a generous gift from Dr. Françoise Macari (IGF, Montpellier, France). GH3b6 cells were cultivated from passage 14 until passage 32 at 37 °C/5% CO2 in Dubelcco’s Modified Eagle Medium (DMEM)/F12 (Lonza, Basel, Switzerland), supplemented with 10% FBS (Lonza, Basel, Switzerland), 1 mM L-glutamine, and 1 mM penicillin and streptomycin solution. For the fluorescence assay, the GH3b6 cells were seeded in black-walled, clear-bottom, 96-well, tissue culture-treated, and sterile imaging plates (Corning Hazebrouck, France), at a density of 10,000 cells per well, and incubated for 24 h before starting the experiment. The human Nav1.3 (hNav1.3) channel-expressing cell line (HEK293) used in this work was a generous gift from Massimo Mantegazza (IPMC, Nice, France). HEK293-hNaV1.3 cells were cultivated from passage 20 until passage 35 at 37 °C/5% CO2 in a DMEM high glucose medium (4.5 g/l), supplemented with 10% FBS, pyruvate, L-glutamine, and penicillin and streptomycin solution, each one at 1 mM, completed with 800 µg/mL geneticin G418. For the fluorescence assays, the cells were plated at a density of 50,000 cells per well in black-walled, clear-bottom, 96-well plates and then cultured at 37 °C and 5% CO2 for 24 h before the experiments. HEK293 stably expressing hNaV1.2 and hNaV1.6 were cultivated in the same conditions mentioned above for the HEK293-hNaV1.3 cells. For the automated patch-clamp experiments, cells were passaged from 24 to 48 h prior to the experiment and replated in the appropriate quantity to reach 50–70% confluence. For electrophysiological recordings, cells were detached with trypsin-EDTA and diluted in a culture medium. Then, the cells were centrifuged at 800 rpm for 4 min and resuspended (~300,000 cells/mL) in a patch-clamp extracellular solution.
# (§2) Whole-cell recordings were used to investigate the effects of oxostephanine, liriodenine, thalmiculine, bebeerine, and protopine on HEK293 cells stably expressing the hNav1.2, hNav1.3, and hNav1.6 channels. Automated patch-clamp recordings were performed using the SyncroPatch 384PE from Nanion (München, Germany). Chips with a single hole (n = 384, series resistance 3.93 ± 1.19 MΩ) were used for HEK293 cell recordings. Pulse generation and data collection were performed with the PatchControl384 v1.9.7 software (Nanion) and the Biomek interface (Beckman Coulter). Whole-cell recordings were conducted according to the recommended procedures of Nanion. The cells were stored in a cell hotel reservoir at 10 °C, with a shaking speed of 60 RPM. After initiating the experiment, cell catch, sealing, whole-cell formation, liquid application, recording, and data acquisition were all performed sequentially and automatically. The intracellular solution contained (in mM): 10 CsCl, 110 CsF, 10 NaCl, 10 EGTA, and 10 HEPES (pH 7.2, osmolarity 280 mOsm), and the extracellular solution contained (in mM): 60 NMDG, 80 NaCl, 4 KCl, 2 CaCl2, 1 MgCl2, 5 Glucose, and 10 HEPES (pH 7.4 (NaOH), osmolarity 280 ± 3 mOsm). Whole-cell experiments were performed at a holding potential of −100 mV at room temperature (18–22 °C). Currents were sampled at 20 kHz. For pharmacological assays, alkaloid solutions were prepared at 30 µM in the extracellular solution supplemented with 0.3% bovine serum albumin and distributed in 384-well compound plates according to a pre-established plate plan. This distribution within compound plates could not be randomized since it would then excessively complexify the methods of analyses. The working compound solution was diluted 3 times in the patch-clamp recording well by adding from 30 to 60 µL of the external solution to reach the final reported concentration and the test volume of 90 µL. The effects of IA (10 µM) or of BTX (1 µM) were measured at the end of a 10 min application time. Activation curves were built by depolarizations lasting for 2000 ms, from −130 mV to 40 mV, using 5 mV increment steps. […]
# [1] = tested on: NaV channels endogenously expressed in GH3b6 cells; test: FRET voltage sensor probe (VSP) assay of BTX-induced depolarization in GH3b6 cells; assay type: cell-based, rat; conditions: GH3b6 cells; for IC50: read-out: IC50 (µM), inhibition of BTX-evoked VSP signal; for Inhibitory Effects (%) on BTX-induced VSP signal (screening): IA at 10–50 µg/mL co-incubated with 1 µM BTX
# human NaV1.3 channel = human NaV1.3 channel (Homo sapiens, UniProt Q9NY46); test: ANG-2 intracellular Na+ fluorescent assay in HEK293-hNaV1.3 cells; assay type: cell-based; conditions: IA at 10 µM; BTX 3 µM; HEK293-hNaV1.3; read-out: Inhibition of BTX-induced [Na+]i elevation (ANG-2 signal)
# hNaV1.2 channel = biological target: T2, hNaV1.2 channel (Homo sapiens, UniProt Q99250); test: Automated patch-clamp, Na+ currents in HEK293-hNaV1.2 cells; assay type: cell-based; conditions: 10 µM
# T2 construct: expressed in transfected cells
# Method: as §1, §2
# hNaV1.6 channel = biological target: T3, hNaV1.6 channel (Homo sapiens, UniProt Q9UQD0); test: Automated patch-clamp, Na+ currents in HEK293-hNaV1.6 cells; assay type: cell-based; conditions: 10 µM
# T3 construct: expressed in transfected cells
# Method: as §1, §2
# T1 sequence (Q9NY46 whole entry): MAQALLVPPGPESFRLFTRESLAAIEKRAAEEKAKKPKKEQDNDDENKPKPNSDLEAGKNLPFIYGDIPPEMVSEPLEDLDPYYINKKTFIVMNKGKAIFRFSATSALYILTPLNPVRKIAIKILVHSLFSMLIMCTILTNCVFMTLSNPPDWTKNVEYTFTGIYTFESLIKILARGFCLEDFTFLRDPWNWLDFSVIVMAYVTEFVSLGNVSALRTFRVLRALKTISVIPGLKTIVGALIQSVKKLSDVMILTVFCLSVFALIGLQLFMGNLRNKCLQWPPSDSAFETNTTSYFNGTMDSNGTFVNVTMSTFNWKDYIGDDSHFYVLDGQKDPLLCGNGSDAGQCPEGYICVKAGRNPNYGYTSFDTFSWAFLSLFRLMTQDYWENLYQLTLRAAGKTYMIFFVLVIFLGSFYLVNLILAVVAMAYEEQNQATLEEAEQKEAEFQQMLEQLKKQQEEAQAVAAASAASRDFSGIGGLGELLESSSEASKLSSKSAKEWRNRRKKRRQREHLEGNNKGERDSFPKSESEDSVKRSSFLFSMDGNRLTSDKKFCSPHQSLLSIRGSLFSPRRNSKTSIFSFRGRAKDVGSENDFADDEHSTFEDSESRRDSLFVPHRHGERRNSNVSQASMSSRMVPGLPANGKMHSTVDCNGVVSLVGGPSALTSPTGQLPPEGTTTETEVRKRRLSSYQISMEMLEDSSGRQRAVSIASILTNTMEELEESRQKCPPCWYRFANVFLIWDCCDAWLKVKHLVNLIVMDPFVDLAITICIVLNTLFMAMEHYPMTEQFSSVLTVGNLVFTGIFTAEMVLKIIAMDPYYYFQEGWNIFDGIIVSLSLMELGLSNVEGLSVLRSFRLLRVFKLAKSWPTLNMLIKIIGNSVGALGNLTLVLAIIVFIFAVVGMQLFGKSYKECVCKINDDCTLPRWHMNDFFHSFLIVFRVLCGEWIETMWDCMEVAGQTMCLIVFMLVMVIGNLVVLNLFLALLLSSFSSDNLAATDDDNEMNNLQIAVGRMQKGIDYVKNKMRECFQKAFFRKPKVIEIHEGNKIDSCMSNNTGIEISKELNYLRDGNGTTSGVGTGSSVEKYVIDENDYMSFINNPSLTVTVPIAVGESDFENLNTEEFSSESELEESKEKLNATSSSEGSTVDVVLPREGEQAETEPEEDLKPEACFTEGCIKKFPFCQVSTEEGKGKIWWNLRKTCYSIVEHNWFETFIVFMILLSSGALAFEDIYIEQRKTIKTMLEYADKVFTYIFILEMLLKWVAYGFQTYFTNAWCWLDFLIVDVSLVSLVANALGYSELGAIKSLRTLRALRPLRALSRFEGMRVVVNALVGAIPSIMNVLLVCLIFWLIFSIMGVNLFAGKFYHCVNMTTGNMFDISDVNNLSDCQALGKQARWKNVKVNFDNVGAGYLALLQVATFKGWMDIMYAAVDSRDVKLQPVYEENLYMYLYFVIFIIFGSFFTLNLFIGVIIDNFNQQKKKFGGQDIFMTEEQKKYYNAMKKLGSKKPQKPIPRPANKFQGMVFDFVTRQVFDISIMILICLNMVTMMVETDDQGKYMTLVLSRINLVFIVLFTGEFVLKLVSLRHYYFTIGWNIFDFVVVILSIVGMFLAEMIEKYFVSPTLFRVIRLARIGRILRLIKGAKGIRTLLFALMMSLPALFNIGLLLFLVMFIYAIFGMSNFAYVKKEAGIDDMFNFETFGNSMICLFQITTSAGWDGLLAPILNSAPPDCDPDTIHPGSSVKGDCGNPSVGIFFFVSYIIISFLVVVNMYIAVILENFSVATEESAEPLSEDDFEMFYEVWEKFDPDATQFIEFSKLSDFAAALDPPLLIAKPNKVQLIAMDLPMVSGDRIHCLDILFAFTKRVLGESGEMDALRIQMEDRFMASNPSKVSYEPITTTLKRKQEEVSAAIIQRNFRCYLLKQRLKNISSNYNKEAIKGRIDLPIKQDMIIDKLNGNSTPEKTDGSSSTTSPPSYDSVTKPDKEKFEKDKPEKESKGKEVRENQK
# T2 sequence (Q99250 whole entry): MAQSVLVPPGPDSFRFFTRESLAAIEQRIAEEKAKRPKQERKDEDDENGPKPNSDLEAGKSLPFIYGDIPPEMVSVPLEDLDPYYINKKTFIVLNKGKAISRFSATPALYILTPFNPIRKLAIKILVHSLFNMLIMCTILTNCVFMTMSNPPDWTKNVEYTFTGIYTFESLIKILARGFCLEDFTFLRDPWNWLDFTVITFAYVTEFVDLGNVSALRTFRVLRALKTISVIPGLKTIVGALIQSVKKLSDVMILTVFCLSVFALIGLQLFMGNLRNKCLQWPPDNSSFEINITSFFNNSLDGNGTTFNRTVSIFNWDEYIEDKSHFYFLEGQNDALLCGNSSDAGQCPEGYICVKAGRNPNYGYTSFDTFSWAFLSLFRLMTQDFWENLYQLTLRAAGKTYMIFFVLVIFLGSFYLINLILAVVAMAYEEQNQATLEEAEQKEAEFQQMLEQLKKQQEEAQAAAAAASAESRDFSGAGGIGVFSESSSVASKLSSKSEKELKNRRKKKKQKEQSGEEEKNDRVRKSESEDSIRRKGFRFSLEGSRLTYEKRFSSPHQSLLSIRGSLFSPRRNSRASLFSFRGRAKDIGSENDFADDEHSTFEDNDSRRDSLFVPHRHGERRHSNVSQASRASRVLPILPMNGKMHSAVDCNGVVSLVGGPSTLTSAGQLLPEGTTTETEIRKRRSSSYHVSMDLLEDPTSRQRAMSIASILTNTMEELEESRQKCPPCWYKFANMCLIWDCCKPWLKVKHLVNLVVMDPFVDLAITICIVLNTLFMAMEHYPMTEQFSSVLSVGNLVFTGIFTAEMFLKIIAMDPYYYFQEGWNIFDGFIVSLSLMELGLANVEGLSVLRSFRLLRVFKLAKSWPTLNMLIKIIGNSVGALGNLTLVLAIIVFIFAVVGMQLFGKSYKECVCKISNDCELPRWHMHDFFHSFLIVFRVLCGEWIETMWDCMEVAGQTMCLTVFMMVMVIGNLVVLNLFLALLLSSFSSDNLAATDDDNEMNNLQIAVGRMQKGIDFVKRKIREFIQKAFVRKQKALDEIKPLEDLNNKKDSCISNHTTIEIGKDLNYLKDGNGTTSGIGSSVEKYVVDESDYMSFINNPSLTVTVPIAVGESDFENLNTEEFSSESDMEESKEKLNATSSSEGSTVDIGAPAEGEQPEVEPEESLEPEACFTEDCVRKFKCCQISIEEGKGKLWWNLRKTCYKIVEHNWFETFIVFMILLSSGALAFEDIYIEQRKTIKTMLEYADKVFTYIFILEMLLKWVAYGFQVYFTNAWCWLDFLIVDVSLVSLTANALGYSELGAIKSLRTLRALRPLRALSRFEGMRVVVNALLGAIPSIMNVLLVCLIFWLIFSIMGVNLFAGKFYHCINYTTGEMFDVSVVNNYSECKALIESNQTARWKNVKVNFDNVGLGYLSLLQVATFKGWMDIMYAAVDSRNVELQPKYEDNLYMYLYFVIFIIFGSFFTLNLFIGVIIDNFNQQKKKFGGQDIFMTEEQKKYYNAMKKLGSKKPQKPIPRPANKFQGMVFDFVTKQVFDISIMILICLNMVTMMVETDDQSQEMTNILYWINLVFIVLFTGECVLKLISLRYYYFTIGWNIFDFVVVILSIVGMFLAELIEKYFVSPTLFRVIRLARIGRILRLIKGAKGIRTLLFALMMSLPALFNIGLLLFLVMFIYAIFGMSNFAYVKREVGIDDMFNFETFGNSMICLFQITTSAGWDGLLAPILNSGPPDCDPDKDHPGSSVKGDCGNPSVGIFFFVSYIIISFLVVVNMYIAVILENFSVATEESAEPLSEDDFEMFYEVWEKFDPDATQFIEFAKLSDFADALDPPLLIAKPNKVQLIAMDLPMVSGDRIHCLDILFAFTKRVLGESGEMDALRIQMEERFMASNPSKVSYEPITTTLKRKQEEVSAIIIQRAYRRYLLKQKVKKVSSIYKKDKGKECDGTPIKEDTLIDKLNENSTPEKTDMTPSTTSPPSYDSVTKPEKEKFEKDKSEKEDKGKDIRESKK
# human NaV1.3 channel, sequence (Q9NY46 whole entry): as the sequence (Q9NY46 whole entry) above
smiles,measurement,setting,value
"Cc1c[nH]c(C)c1C(=O)OC(C)C1=CCC23OCCN(C)CC12CC(O)C12OC4(O)CCC1(C)C(CC=C32)C4 (stereo not shown) [BTX, batrachotoxin, reference compound]",Increase of the AUC of current traces (inactivation rate of hNaV1.3),"hNaV1.3 channel; BTX 1 µM, data not shown",55 fold
same,EC50 of BTX-induced VSP signal ratio,"[1]; BTX 0.01 to 3 µM, Na+ raised to 80 mM",0.27 ± 0.06 µM
"COc1cccc2c1C(=O)c1nccc3cc4c(c-2c13)OCO4 [IA14, oxostephanine]",Effect on current densities of hNaV1.3 at −60 mV,hNaV1.3 channel; 10 µM IA in the presence of 1 µM BTX,significantly decreased
same,Effect on slow-down of inactivation induced by BTX (AUC),"hNaV1.3 channel; 10 µM IA, BTX 1 µM, hNaV1.3",significantly decreased
same,Effect on Na+ currents elicited by hNaV1.3,"hNaV1.3 channel; 10 µM, HEK293-hNaV1.3, without BTX",no effects
same,Change in V1/2 of activation and inactivation vs control,"hNaV1.3 channel; hNaV1.3, 10 µM",ns
same,inhibition at 10 µM,human NaV1.3 channel,43 ± 12%
same,Effect on Na+ currents elicited by hNaV1.2,hNaV1.2 channel; HEK293-hNaV1.2,no effects
same,Change in V1/2 of activation and inactivation vs control,hNaV1.2 channel; hNaV1.2,ns
same,Maximum of Inhibition of BTX-evoked VSP signal,"[1]; BTX 1 µM, n = 6, % printed only",95.78 ± 6.99%
same,IC50,"[1]; BTX 1 µM, n = 6, listed as Oxostephanine",5 to 6 µM
same,IC50,"[1]; BTX 1 µM, n = 6",6.11 ± 0.09 µM
same,Inhibitory Effects (%) on BTX-induced VSP signal (screening),[1],84.4%
same,Inhibitory Effects (%) on BTX-induced VSP signal (screening),[1]; listed as IA24,80.5%
same,Effect on Na+ currents elicited by hNaV1.6,hNaV1.6 channel; HEK293-hNaV1.6,no effects
same,Change in V1/2 of activation and inactivation vs control,hNaV1.6 channel; hNaV1.6,ns
"COc1ccc2cc1-c1cc(ccc1O)C[C@H]1c3cc4c(cc3CCN1C)Oc1c(OC)cc3c(c1O4)[C@H](C2)N(C)CC3 [IA31, tiliacorinine]",Inhibitory Effects (%) on BTX-induced VSP signal (screening),[1],92.8%
"COc1ccc2c(c1OC)C(O)C1c3c(cc4c(c3-2)OCO4)CCN1C (stereo not shown) [IA36, sukhodianine]",Inhibitory Effects (%) on BTX-induced VSP signal (screening),[1],92.2%
"COc1ccc2cc1Oc1ccc(cc1)C[C@H]1c3cc(c(OC)cc3CCN1C)Oc1c(OC)c(OC)cc3c1[C@H](C2)N(C)CC3 [IA50, tetrandine]",Inhibitory Effects (%) on BTX-induced VSP signal (screening),[1],78.3%
